Our source for the ED50 and Ki values is ChEMBL document CHEMBL1129217, “Synthesis and pharmacology of the 1,2-dimethylheptyl-8-THC isomers: exceptionally potent cannabinoids” (Bioorg Med Chem Lett, 1997).

Test [1] concerns Mus musculus. The test is described as follows: The compound was evaluated in vivo for antinociception (TF) activity in a mouse model. It counts as functional.
The test system of test [2] is Mus musculus. The test can be described thus: The compound was evaluated in vivo for hypothermia(as rectal temperature) in a mouse model. It counts as functional.
Test [3] concerns Mus musculus. The test is described as follows: The compound was evaluated in vivo for spontaneous activity(SA) in a mouse model. It counts as functional.
The target in test [4] is Cannabinoid receptor (Homo sapiens, UniProt P34972+P21554). The test can be described thus: The affinity of compound for the cannabinoid brain receptor was determined by measuring its ability to displace [3H]CP-55940 from its binding site in a membrane preparation. It counts as cell membranes.

The term ED50 denotes the midpoint of the dose-response relation. A lower ED50 goes with greater potency. Consider `CCCCCCC(C)(C)c1cc(O)c2c(c1)OC(C)(C)[C@@H]1CC=C(CO)C[C@@H]21`, for which the ED50 came out at 0.02 µmol/kg in test [1], 0.05 µmol/kg in test [2] and 0.01 µmol/kg in test [3].
By Ki is commonly meant the dissociation constant of the complex between target and ligand, obtained from inhibition or displacement. A low value points to a stronger hold on the target. In test [4], `CC1=CC[C@@H]2[C@H](C1)c1c(O)cc(C(C)C(C)C3CCCC3)cc1OC2(C)C` (stereo partly specified) gave a Ki of 0.6 nM. In addition, the figures for the ED50 in test [1], in test [2] and in test [3] were 0.1 µmol/kg, 0.07 µmol/kg and 0.04 µmol/kg, respectively.
Consider `CCCCCc1cc(O)c2c(c1)OC(C)(C)[C@@H]1CC=C(C)C[C@@H]21` [DELTA-8-TETRAHYDROCANNABINOL], for which the ED50 in test [1] was 4.5 µmol/kg; in test [2], 4.8 µmol/kg; in test [3], 2.9 µmol/kg.
Turning to `CC1=CC[C@@H]2[C@@H](C1)c1c(O)cc(C(C)C(C)C3CCCC3)cc1OC2(C)C` (stereo partly specified), the Ki in test [4] was determined as 0.84 nM. Moreover, the median effective dose (ED50) was 0.42 µmol/kg in test [1], 0.63 µmol/kg in test [2] and 0.45 µmol/kg in test [3].
As to `CC1=CC[C@H]2[C@@H](C1)c1c(O)cc(C(C)C(C)C3CCCC3)cc1OC2(C)C` (stereo partly specified), the Ki in test [4] was determined as 0.46 nM. In addition, the ED50 in test [1] turned out to be 0.03 µmol/kg; in test [2], 0.07 µmol/kg; in test [3] it was 0.03 µmol/kg.
Compound `CCCCCCC(C)(C)c1cc(O)c2c(c1)OC(C)(C)[C@@H]1CC=C(C)C[C@@H]21` displayed a Ki in test [4] of 0.77 nM. Also, the ED50 was 0.14 µmol/kg in test [1], 0.15 µmol/kg in test [2] and 0.27 µmol/kg in test [3].
Taken in the same sequence, the figures for `CC1=CC[C@H]2[C@H](C1)c1c(O)cc(C(C)C(C)C3CCCC3)cc1OC2(C)C` (stereo partly specified) were 0.81 nM, 0.18 µmol/kg, 0.19 µmol/kg and 0.12 µmol/kg.
